Results: patent US9394306B2, “Pyrazoline dione derivatives as NADPH oxidase inhibitors” (GENKYOTEX SA, priority 2009, dated 2016)

What was measured:
[1] = test system: NOX activities; experiment: Chemiluminescence (luminol) ROS measurement in cells; assay type: cell-based; conditions: 'usually'
Method: ROS was measured using the chemiluminescent probe luminol. Cells were cultured and plated as for Amplex Red except that the Amplex Red agent was replaced by 10 μg/mL luminol (Sigma 09235). Light emission was recorded continuously at 37° C. for 60 minutes using the luminescence function of the FluoStar Optima fluorescent plate reader. The mean of the four blank values was subtracted from each corrected value for each time point. NOX activities were expressed as % of the activity in control cells. Residual activity of DPI-treated cells was usually <10%.

[2] = test system: NOX activities; experiment: H2DCF-DA ROS measurement in TGF-β stimulated HUVEC; assay type: cell-based, Human; conditions: 'usually'
Method: HUVEC are cultured in endothelial basal medium supplemented with hydrocortisone (1 μg/mL, CalbioChem), bovine brain extract (12 μg/mL), gentamicin (50 μg/mL, CalbioChem), amphotericin B (50 ng/mL, CalBioChem EGF (10 ng/mL, and 10% FCS until the fourth passage. When the fifth passage was started, cells were cultured with a lower concentration of FCS (2%) in the absence of EGF, if not indicated otherwise. All experiments were done with cells of the fifth passage. The cells were incubated with O×LDL (oxidized low-density lipoprotein) or its buffer as control for 24 h, before detection of O2^− formation.
HUVEC were plated on coverslips and made quiescent overnight in 0.5% BSA before stimulation with TGF-β. Cells were loaded for 10 minutes with 5 μM CM-H2DCFDA in phenol-red-free medium in the dark and then treated with TGF-β (R&D Systems) in the presence or absence of compounds according to the invention. Cells were then visualized by immunofluorescence microscopy after fixation and staining of the nuclei with DAPI or examined live using confocal microscopy. DCF fluorescence was visualized at an excitation wavelength of 488 nm and emission at 515 to 540 nm. […] For calculation, the absorbance at […] was normalized to absorbance at […] for each individual well. […] NOX activities were expressed as % of the activity in control cells. […]

[3] = test system: T1, NOX activity; experiment: Amplex Red measurement of extracellular hydrogen peroxide (NOX activity) in DMSO-differentiated HL60 cells; assay type: cell-based, Human; conditions: DPI 10 μM, 'usually'
T1 construct: rows headed: Residual activity of DPI-treated cells (NOX activity, % of control cells); other: Amplex Red, DPI 10 μM, 'usually'
Method: Human acute myeloid leukemia cell line HL-60 was cultured in RPMI 1640 (Invitrogen) supplemented with 10% heat-inactivated calf serum, 2 mM glutamine, 100 U/mL penicillin (Sigma), and 100 μg streptomycin (Sigma) at 37° C. under a humidified atmosphere of 5% CO2. HL60 differentiation to the neutrophil phenotype was triggered by adding Me2SO (final concentration 1.25% v/v for 6 days) to the culture medium.
Extracellular hydrogen peroxide was measured using Amplex UltraRed (Molecular Probes). Cells were trypsinized (1× Trypsin-EDTA), collected by centrifugation, and resuspended in HBSS supplemented with 1% glucose. Cells were seeded into black 96-well plates at a density of 50,000 cells in 200 μl testing buffer (HBSS 1% glucose containing 0.005 U/mL horseradish peroxidase (Roche) and 50 μM Amplex Red in the presence or absence of compounds according to the invention. As a control, DPI was included at a final concentration of 10 μM The plates were placed in the fluorescent Optima Fluorescent plate reader and kept at 37° C. during 20 min. Fluorescence was measured for […] with excitation and emission wavelengths of 544 nm and 590 nm respectively. NOX activities were expressed as % of the activity in control cells. Residual activity of DPI-treated cells was usually <10%.

[4] = test system: NOX activities; experiment: Nitroblue tetrazolium (NBT) superoxide test in cells; assay type: cell-based; conditions: DPI 10 μM, 'usually'
Method: Intracellular and extracellular superoxide was measured by a colorimetric technique using a quantitative nitroblue tetrazolium (NBT) test. SOD-inhibitable conversion of NBT to formazan, a fine blue precipitate, in the presence of superoxide anion was measured using Fluostar Optima spectrometer (BMG labtech). Following incubation with appropriate stimuli, cells were trypsinized (1× Trypsin-EDTA), collected by centrifugation, and washed with PBS to remove medium. 5×10^5 cells were plated on 48-well plates and incubated in Hank's balanced salt solution containing 0.5 mg/mL NBT with or without 800 U/mL SOD in the presence or absence of compounds according to the invention. As a control, DPI was included at a final concentration of 10 μM. After 2.5 h, cells were fixed and washed with methanol to remove non reduced NBT. The reduced formazan was then dissolved in 230 μl of 2M potassium hydroxide and in 280 μl of dimethylsulfoxide. The absorption was measured at 630 nm. For calculation, the absorbance at 630 nm was normalized for each individual well. The mean of the four blank values was subtracted from each corrected value for each time point. NOX activities were expressed as % of the activity in control cells. Residual activity of DPI-treated cells was usually <10%.

[5] = test system: collagen deposition; experiment: Bleomycin-induced lung injury in mice, curative model (SIRCOL collagen assay); assay type: in vivo
Method: (§1) Control animals are subjected to the same protocol but received the same volume of intratracheal saline instead of BLM. Tracheal instillation is carried out under ketamin (80 mg/kg of body weight, i.p.) and xylazine (20 mg/kg de body weight, i.p.) anesthesia.
(§2) […] after endotracheal BLM or saline, the animals are killed by a lethal injection of sodium pentobarbital followed by exsanguination of abdominal aorta. Lungs are weighed and processed separately for biochemical (n=10 lungs per group) and histological studies (n=5 per group) as indicated below. The animals are randomly divided into four groups: control-saline (n=8) and control+BLM (n=15); Compound Dose 1+BLM (n=15) and Compound Dose 2+BLM (N=15). Treatments vehicle or compounds are administered for 5 weeks.
(§3) Mice are treated by daily oral administration of compound according to the invention or saline/control starting on day 0 for five weeks in the preventive model and starting on day 10 up to five weeks for the curative model. Whole lung accumulation of acid-soluble collagen is analyzed by Sircol assay.
The broad lines of the above protocol were followed. At day 0, animals received an intratracheal injection of 0.0125 UI of bleomycin (40 μl) to produce pulmonary lesions. Curative treatment group was orally administered a compound of the invention once a day for 3.5 weeks starting from day 10 to day 35. The animals are randomly divided into six groups: control-saline (n=8); 2 groups control+BLM (n=13); Compound 3 of the invention per os 40 mg/kg+BLM (n=13); Compound 3 of the invention per os 10 mg/kg+BLM (n=13) and Pirfenidone (AQCHEM, ref P1002) at 100 mg/kg per os+BLM (n=13). One bleomycin control group was stopped at day 10, the animals were killed and collagen levels were measured. For the other groups, 35 days after endotracheal BLM or saline, the animals are killed and lungs are processed as indicated above for quantification of collagen deposition and lung inflammation as indicated above. […]

[6] = test system: collagen deposition; experiment: Bleomycin-induced lung injury in mice, preventive model (SIRCOL collagen assay); assay type: in vivo; conditions: day 35
Method: as §1, §2, §3
The broad lines of the above protocol were followed. […] 35 days after endotracheal BLM or saline, the animals are killed and lungs are processed as indicated above for quantification of collagen deposition and lung inflammation by SIRCOL assay (TebuBio, ref S1000).

## c1ccc([I+]c2ccccc2)cc1 [DPI, Diphenyl-iodonium]
[1]
  Residual activity of DPI-treated cells (NOX activity, % of control cells): < 10%
[2]
  Residual activity of DPI-treated cells (NOX activity, % of control cells): < 10%
[3]
  Residual activity of DPI-treated cells (NOX activity, % of control cells): < 10%
[4]
  Residual activity of DPI-treated cells (NOX activity, % of control cells): < 10%

## Cc1ccc(=O)n(-c2ccccc2)c1 [Pirfenidone]
[5]; 100 mg/kg per os once a day from day 10 to day 35, mice
  inhibition of collagen deposition as compared to bleomycin control: 12%
[6]; 100 mg/kg per os once a day from day 0 for five weeks
  inhibition of collagen deposition as compared to bleomycin control: 45%

## O=c1c2c3n(c(=O)cc2[nH]n1-c1ccccc1Cl)CCCN(Cc1ccccc1)C3 [Compound 3, 10-benzyl-2-(2-chlorophenyl)-2,3,8,9,10,11-hexahydro-1H-pyrazolo[4′,3′:3,4]pyrido[1,2-a][1,4]diazepine-1,5(7H)-dione]
[5]; 10 mg/kg per os once a day from day 10 to day 35, mice
  inhibition of collagen deposition as compared to bleomycin control: 64%
[5]; 40 mg/kg per os once a day from day 10 to day 35, mice
  inhibition of collagen deposition as compared to bleomycin control: 52%
[6]; 40 mg/kg per os once a day from day 0 for five weeks
  inhibition of collagen deposition as compared to bleomycin control: 46%
